Each molecule was assayed against Factor D (Homo sapiens, UniProt P00746) (assay: Factor D esterolytic assay (Z-Lys-SBzl thioester substrate, DTNB, 405 nm)). Conditions: substrate Z-Lys-SBzl 1.29 mM, 100 mM HEPES, 500 mM NaCl, pH 7.5, 10% DMSO, tested a minimum of three times.
Type: biochemical
Procedure, shortened: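 Human Factor D hydrolysis of Z-Lys-SBzl (1.29 mM) monitored at 405 nm via DTNB thiol detection for 600 s, 690 nm background subtracted. Buffer 100 mM HEPES, 500 mM NaCl, pH 7.5, 10% DMSO; substrate added immediately or after room-temperature preincubation. IC50 from percent inhibition of rate, at least three tests.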

Sequence of Factor D (P00746 26-253): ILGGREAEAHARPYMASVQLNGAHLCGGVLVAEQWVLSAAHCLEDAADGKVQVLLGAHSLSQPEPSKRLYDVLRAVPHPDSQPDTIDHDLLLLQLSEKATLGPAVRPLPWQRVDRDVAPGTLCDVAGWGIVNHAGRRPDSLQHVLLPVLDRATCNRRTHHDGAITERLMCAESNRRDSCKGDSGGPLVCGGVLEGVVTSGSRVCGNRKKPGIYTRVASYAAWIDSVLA

SMILES | IC50
Nc1ncnc2c1c1cc(Cl)ccc1n2CC(=O)N1[C@@H]2C[C@@H]2C[C@H]1C(=O)Nc1cccc(Br)n1 [Compound 236f, (1R,3S,5R)-2-(2-(4-amino-6-chloro-9H-pyrimido[4,5-b]indol-9-yl)acetyl)-N-(6-bromopyridin-2-yl)-2-azabicyclo[3.1.0]hexane-3-carboxamide] | < 100 nM
C[C@@]12C[C@@H](C(=O)Nc3cccc(Br)n3)N(C(=O)Cn3c4ccc(Cl)cc4c4c(N)ncnc43)[C@@H]1C2 [Compound 237a, (1R,3S,5R)-2-(2-(4-amino-6-chloro-9H-pyrimido[4,5-b]indol-9-yl)acetyl)-N-(6-bromopyridin-2-yl)-5-methyl-2-azabicyclo[3.1.0]hexane-3-carboxamide] | < 100 nM
COc1cc(Cl)cc2c3c(N)ncnc3n(CC(=O)N3[C@@H]4C[C@@H]4C[C@H]3C(=O)Nc3cccc(Br)n3)c12 [Compound 238g, (1R,3S,5R)-2-(2-(4-amino-6-chloro-8-methoxy-9H-pyrimido[4,5-b]indol-9-yl)acetyl)-N-(6-bromopyridin-2-yl)-2-azabicyclo[3.1.0]hexane-3-carboxamide] | < 100 nM
COc1cc(Cl)cc2c3c(N)ncnc3n(CC(=O)N3[C@H](C(=O)Nc4cccc(Br)n4)C[C@@]4(C)C[C@@H]34)c12 [Compound 239a, (1R,3S,5R)-2-(2-(4-amino-6-chloro-8-methoxy-9H-pyrimido[4,5-b]indol-9-yl)acetyl)-N-(6-bromopyridin-2-yl)-5-methyl-2-azabicyclo[3.1.0]hexane-3-carboxamide] | < 100 nM
COC(=O)c1cc(OC)c2c(c1)c1c(N)ncnc1n2CC(=O)N1[C@@H]2C[C@@H]2C[C@H]1C(=O)Nc1cccc(Br)n1 [Compound 240g, methyl 4-amino-9-(2-((1R,3S,5R)-3-((6-bromopyridin-2-yl)carbamoyl)-2-azabicyclo[3.1.0]hexan-2-yl)-2-oxoethyl)-8-methoxy-9H-pyrimido[4,5-b]indole-6-carboxylate] | < 100 nM
COC(=O)c1cc(OC)c2c(c1)c1c(N)ncnc1n2CC(=O)N1[C@H](C(=O)Nc2cccc(Br)n2)C[C@@]2(C)C[C@@H]12 [Compound 241a, methyl 4-amino-9-(2-((1R,3S,5R)-3-((6-bromopyridin-2-yl)carbamoyl)-5-methyl-2-azabicyclo[3.1.0]hexan-2-yl)-2-oxoethyl)-8-methoxy-9H-pyrimido[4,5-b]indole-6-carboxylate] | < 100 nM
COc1cc([N+](=O)[O-])cc2c3c(N)ncnc3n(CC(=O)N3[C@@H]4C[C@@H]4C[C@H]3C(=O)Nc3cccc(Br)n3)c12 [Compound 242g, (1R,3S,5R)-2-(2-(4-amino-8-methoxy-6-nitro-9H-pyrimido[4,5-b]indol-9-yl)acetyl)-N-(6-bromopyridin-2-yl)-2-azabicyclo[3.1.0]hexane-3-carboxamide] | < 100 nM
COc1cc([N+](=O)[O-])cc2c3c(N)ncnc3n(CC(=O)N3[C@H](C(=O)Nc4cccc(Br)n4)C[C@@]4(C)C[C@@H]34)c12 [Compound 243a, (1R,3S,5R)-2-(2-(4-amino-8-methoxy-6-nitro-9H-pyrimido[4,5-b]indol-9-yl)acetyl)-N-(6-bromopyridin-2-yl)-5-methyl-2-azabicyclo[3.1.0]hexane-3-carboxamide] | < 100 nM
Nc1ncnc2c1c1cccc(-c3ccccc3)c1n2CC(=O)N1[C@@H]2C[C@@H]2C[C@H]1C(=O)Nc1cccc(Br)n1 [Compound 244d, (1R,3S,5R)-2-(2-(4-amino-8-phenyl-9H-pyrimido[4,5-b]indol-9-yl)acetyl)-N-(6-bromopyridin-2-yl)-2-azabicyclo[3.1.0]hexane-3-carboxamide] | < 100 nM
C[C@@]12C[C@@H](C(=O)Nc3cccc(Br)n3)N(C(=O)Cn3c4ncnc(N)c4c4cccc(-c5ccccc5)c43)[C@@H]1C2 [Compound 245a, (1R,3S,5R)-2-(2-(4-amino-8-phenyl-9H-pyrimido[4,5-b]indol-9-yl)acetyl)-N-(6-bromopyridin-2-yl)-5-methyl-2-azabicyclo[3.1.0]hexane-3-carboxamide] | < 100 nM
Nc1ncnc2c1c1cc(C(F)(F)F)ccc1n2CC(=O)N1C[C@H](F)C[C@H]1C(=O)Nc1cccc(Cl)n1 [Compound 246b, (2S,4R)-1-(2-(4-amino-6-(trifluoromethyl)-9H-pyrimido[4,5-b]indol-9-yl)acetyl)-N-(6-chloropyridin-2-yl)-4-fluoropyrrolidine-2-carboxamide] | < 100 nM
CO[C@H]1C[C@@H](C(=O)Nc2cccc(Br)n2)N(C(=O)Cn2c3ccc(C(F)(F)F)cc3c3c(N)ncnc32)C1 [Compound 247d, (2S,4S)-1-(2-(4-amino-6-(trifluoromethyl)-9H-pyrimido[4,5-b]indol-9-yl)acetyl)-N-(6-bromopyridin-2-yl)-4-methoxypyrrolidine-2-carboxamide] | 100 to 1000 nM
CO[C@@H]1C[C@@H](C(=O)Nc2cccc(Br)n2)N(C(=O)Cn2c3ccc(C(F)(F)F)cc3c3c(N)ncnc32)C1 [Compound 248d, (2S,4R)-1-(2-(4-amino-6-(trifluoromethyl)-9H-pyrimido[4,5-b]indol-9-yl)acetyl)-N-(6-bromopyridin-2-yl)-4-methoxypyrrolidine-2-carboxamide] | > 1000 nM
COc1cccc2c1c1c(N)ncnc1n2CC(=O)N1[C@H](C(=O)Nc2nc(Br)ccc2C)C[C@@]2(C)C[C@@H]12 [Compound 249a, (1R,3S,5R)-2-(2-(4-amino-5-methoxy-9H-pyrimido[4,5-b]indol-9-yl)acetyl)-N-(6-bromo-3-methylpyridin-2-yl)-5-methyl-2-azabicyclo[3.1.0]hexane-3-carboxamide] | < 100 nM
N#Cc1ccc(CNC(=O)[C@@H]2CCCN2C(=O)Cn2c3ccccc3c3c(N)ncnc32)cc1 [Compound 250b, (S)-1-(2-(4-amino-9H-pyrimido[4,5-b]indol-9-yl)acetyl)-N-(4-cyanobenzyl)pyrrolidine-2-carboxamide] | > 1000 nM
Nc1ncnc2c1c1cc(C(F)(F)F)ccc1n2CC(=O)N1C(=O)OC[C@H]1C(=O)NCc1cccc(Cl)c1F [Compound 251f, (S)-3-(2-(4-amino-6-(trifluoromethyl)-9H-pyrimido[4,5-b]indol-9-yl)acetyl)-N-(3-chloro-2-fluorobenzyl)-2-oxooxazolidine-4-carboxamide] | 100 to 1000 nM
COc1ccc2c(c1)c1c(N)ncnc1n2CC(=O)N1[C@H](C(=O)Nc2nc(Br)ccc2C)C[C@@]2(C)C[C@@H]12 [Compound 252a, (1R,3S,5R)-2-(2-(4-amino-6-methoxy-9H-pyrimido[4,5-b]indol-9-yl)acetyl)-N-(6-bromo-3-methylpyridin-2-yl)-5-methyl-2-azabicyclo[3.1.0]hexane-3-carboxamide] | < 100 nM
COc1ccc2c3c(N)ncnc3n(CC(=O)N3[C@H](C(=O)Nc4nc(Br)ccc4C)C[C@@]4(C)C[C@@H]34)c2c1 [Compound 253a, (1R,3S,5R)-2-(2-(4-amino-7-methoxy-9H-pyrimido[4,5-b]indol-9-yl)acetyl)-N-(6-bromo-3-methylpyridin-2-yl)-5-methyl-2-azabicyclo[3.1.0]hexane-3-carboxamide] | < 100 nM
COc1cccc2c3c(N)ncnc3n(CC(=O)N3[C@H](C(=O)Nc4nc(Br)ccc4C)C[C@@]4(C)C[C@@H]34)c12 [Compound 254a, (1R,3S,5R)-2-(2-(4-amino-8-methoxy-9H-pyrimido[4,5-b]indol-9-yl)acetyl)-N-(6-bromo-3-methylpyridin-2-yl)-5-methyl-2-azabicyclo[3.1.0]hexane-3-carboxamide] | < 100 nM

Source: patent US12679843B2, “Pyrrolopyrimidine amines as complement inhibitors” (BioCryst Pharmaceuticals, Inc., priority 2020, dated 2026)
